The source of these data is patent publication US10028942B2 (priority 2013, dated 2018).

Each structure is given as a SMILES string.

The test deals with T1, DLK (Homo sapiens, UniProt Q12852).
T1 sequence (Q12852 1-520): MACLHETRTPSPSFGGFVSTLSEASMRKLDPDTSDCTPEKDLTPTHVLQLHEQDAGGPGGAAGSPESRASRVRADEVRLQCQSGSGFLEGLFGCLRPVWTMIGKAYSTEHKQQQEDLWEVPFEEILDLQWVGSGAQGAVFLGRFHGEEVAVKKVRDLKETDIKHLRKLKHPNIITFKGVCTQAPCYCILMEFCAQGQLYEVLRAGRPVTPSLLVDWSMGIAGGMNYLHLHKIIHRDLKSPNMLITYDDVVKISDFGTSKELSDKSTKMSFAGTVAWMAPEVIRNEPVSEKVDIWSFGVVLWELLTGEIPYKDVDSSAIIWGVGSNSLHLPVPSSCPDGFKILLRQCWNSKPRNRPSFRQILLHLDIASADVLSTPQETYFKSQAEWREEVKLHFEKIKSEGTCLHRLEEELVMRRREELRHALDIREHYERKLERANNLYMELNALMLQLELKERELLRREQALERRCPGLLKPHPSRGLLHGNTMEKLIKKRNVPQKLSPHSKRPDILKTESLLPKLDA
The note with it: read-out: DLK (Ki) μM; TR-FRET; 5 nM GST-tagged DLK (catalytic domain aa 1-520), 40 nM HIS-MKK4 K131M substrate, 30 μM ATP, 60 minutes. On the technique in general: Time-resolved FRET reads energy transfer from a long-lived donor to a nearby acceptor.

By Ki is commonly meant a dissociation constant, usually derived from enzyme kinetics or from competition with a known ligand. Take `Nc1ncc(-c2cc([C@H]3[C@@H]4CN(C5COC5)C[C@@H]43)n(C3CCCC3)n2)cc1Cl` [Compound 136, 3-chloro-5-(1-cyclopentyl-5-((1R,5S,6r)-3-(oxetan-3-yl)-3-azabicyclo [3.1.0]hexan-6-yl)-1H-pyrazol-3-yl) pyridin-2-amine]: the Ki is 0.024 µM. Turning to `CC1(Cn2nc(-c3cnc(N)c(C(F)(F)F)c3)cc2[C@H]2[C@@H]3CN(C4COC4)C[C@@H]32)CC1` [Compound 177, 5-(1-((1-methylcyclopropyl)methyl)-5-((1R,5S,6r)-3-(oxetan-3-yl)-3-aza-bicyclo[3.1.0]hexan-6-yl)-1H-pyrazol-3-yl)-3-(trifluoromethyl)pyridin-2-amine], the Ki was found to be 0.00067 µM. The same measure for `CC(C)n1nc(-c2cnc(N)c(C(F)(F)F)c2)cc1[C@H]1[C@@H]2CN(S(C)(=O)=O)C[C@@H]21` [Compound 108, 5-(1-isopropyl-5-((1R,5S,6r)-3-(meth-ylsulfonyl)-3-azabicyclo[3.1.0]hex-an-6-yl)-1H-pyrazol-3-yl)-3-(trifluoro-methyl)pyridin-2-amine]: 0.0049 µM; for `COCCN1C[C@@H]2[C@H](C1)[C@H]2c1cc(-c2cnc(N)c(OC(F)F)c2)nn1C(C)C` [Compound 119, 3-(difluoromethoxy)-5-(1-isopropyl-5-((1R,5S,6r)-3-(2-methoxyethyl)-3-azabicyclo[3.1.0]hexan-6-yl)-1H-py-razol-3-yl)pyridin-2-amine]: 0.0055 µM; for `CC(C)n1nc(-c2cnc(N)c(C3CC3)c2)cc1[C@H]1[C@@H]2CN(C3COC3)C[C@@H]21` [Compound 142, 3-cyclopropyl-5-(1-isopropyl-5-((1R,5S,6r)-3-(oxetan-3-yl)-3-azabicyclo [3.1.0]hexan-6-yl)-1H-pyrazol-3-yl) pyridin-2-amine]: 0.022 µM. On to `Nc1ncc(-c2cc([C@H]3[C@@H]4CN(C5COC5)C[C@@H]43)n(C3CC3)n2)cc1C(F)F` [Compound 170, 5-(1-cyclopropyl-5-((1R,5S,6r)-3-(oxe-tan-3-yl)-3-azabicyclo[3.1.0]hexan-6-yl)-1H-pyrazol-3-yl)-3-(difluoro-methyl)pyridin-2-amine], for which the Ki came out at 0.012 µM. The same measure for `CC(C)n1nc(-c2cnc(N)c(C(F)(F)F)c2)cc1[C@H]1[C@@H]2CN(CC(C)(C)O)C[C@@H]21` [Compound 128, 1-((1R,5S,6r)-6-(3-(6-amino-5-(trifluoro-methyl)pyridin-3-yl)-1-isopropyl-1H-pyrazol-5-yl)-3-azabicyclo[3.1.0]hexan-3-yl)-2-methylpropan-2-ol]: 0.011 µM; for `CC(C)n1nc(-c2cnc(N)c(C(F)F)c2)cc1[C@H]1[C@@H]2CN(C3COC3)C[C@@H]21` [Compound 158, 3-(difluoromethyl)-5-(1-isopropyl-5-((1R,5S,6r)-3-(oxetan-3-yl)-3-azabi-cyclo[3.1.0]hexan-6-yl)-1H-pyrazol-3-yl)pyridin-2-amine]: 0.035 µM. For `Cc1c[nH]c2ncc(-c3cc(C4CCOC4)n(C4CC(F)(F)C4)n3)cc12` (stereo not drawn) [Compound 19, 5-(1-(3,3-difluorocyclobutyl)-5-(tetrahydrofuran-3-yl)-1H-pyrazol-3-yl)-3-methyl-1H-pyrrolo[2,3-b]pyridine], the Ki was 0.082 µM. Consider `Nc1ncc(-c2cc([C@H]3[C@@H]4CN(CC(F)(F)F)C[C@@H]43)n(C3COC3)n2)cc1Cl` [Compound 111, 3-chloro-5-(1-(oxetan-3-yl)-5-((1R,5S, 6r)-3-(2,2,2-trifluoroethyl)-3-azabi-cyclo[3.1.0]hexan-6-yl)-1H-pyrazol-3-yl)pyridin-2-amine], for which the inhibitory constant (Ki) came to 0.18 µM. For `Nc1ncc(-c2cc([C@H]3[C@@H]4CN(C5COC5)C[C@@H]43)n(CC3CCC3)n2)cc1OC(F)F` [Compound 164, 5-(1-(cyclobutylmethyl)-5-((1R,5S,6r)-3-(oxetan-3-yl)-3-azabicyclo[3.1.0]hexan-6-yl)-1H-pyrazol-3-yl)-3-(di-fluoromethoxy)pyridin-2-amine], the Ki amounted to 0.013 µM. Consider `CC(=O)N1CC(c2cc(-c3cnc4[nH]cc(C(F)(F)F)c4c3)nn2C)C1` [Compound 11, 1-(3-(1-methyl-3-(3-(trifluoromethyl)-1H-pyrrolo[2,3-b]pyridin-5-yl)-1H-pyrazol-5-yl)azetidin-1-yl)ethanone], for which the inhibition constant Ki came to 0.034 µM. As to `CC(C)n1nc(-c2cnc(N)c(C(F)(F)F)c2)cc1[C@H]1[C@@H]2CN(CCC#N)C[C@@H]21` [Compound 127, 3-((1R,5S,6r)-6-(3-(6-amino-5-(trifluoro-methyl)pyridin-3-yl)-1-isopropyl-1H-pyrazol-5-yl)-3-azabicyclo[3.1.0]hexan-3-yl)propanenitrile], the Ki is 0.0059 µM. For the compound `CC(C)n1nc(-c2cnc(N)c(C#N)c2)cc1C1CCN(C2COC2)CC1` [Compound 92, 2-amino-5-(1-isopropyl-5-(1-(oxetan-3-yl)piperidin-4-yl)-1H-pyrazol-3-yl)nicotinonitrile], the inhibition constant Ki is 0.94 µM. For `Nc1ncc(-c2cc([C@H]3[C@@H]4CN(C5COC5)C[C@@H]43)n(CC3CC3)n2)cc1OC(F)F` [Compound 173, 5-(1-(cyclopropylmethyl)-5-((1R,5S,6r)-3-(oxetan-3-yl)-3-azabicyclo[3.1.0]hexan-6-yl)-1H-pyrazol-3-yl)-3-(difluoromethoxy)pyridin-2-amine] the value was 0.0039 µM; for `N#Cc1cc(-c2cc([C@H]3[C@@H]4CN(C5COC5)C[C@@H]43)n(C3CCCC3)n2)cnc1N` [Compound 138, 2-amino-5-(1-cyclopentyl-5-((1R,5S,6r)-3-(oxetan-3-yl)-3-azabicyclo[3.1.0]hexan-6-yl)-1H-pyrazol-3-yl)nicoti-nitrile], 0.031 µM.

With `CC(C)Oc1cc(-c2cc([C@H]3[C@@H]4CN(C5COC5)C[C@@H]43)n(C3CCCC3)n2)cnc1N` [Compound 156, 5-(1-cyclopentyl-5-((1R,5S,6r)-3-(oxe-tan-3-yl)-3-azabicyclo[3.1.0]hexan-6-yl)-1H-pyrazol-3-yl)-3-isopropoxy-pyridin-2-amine], the Ki was determined as 0.032 µM. As to `N#Cc1cc(-c2cc([C@H]3[C@@H]4CN(CC(F)(F)F)C[C@@H]43)n(CC3CC3)n2)cnc1N` [Compound 113, 2-amino-5-(1-(cyclopropylmethyl)-5-((1R,5S,6r)-3-(2,2,2-trifluoroethyl)-3-azabicyclo[3.1.0]hexan-6-yl)-1H-pyrazol-3-yl)nicotinonitrile], the Ki came out at 0.064 µM. With `CC(C)OC(=O)N1C[C@@H]2[C@H](C1)[C@H]2c1cc(-c2cnc(N)c(C(F)(F)F)c2)nn1C(C)C` [Compound 130, (1R,5S,6r)-isopropyl 6-(3-(6-amino-5-(trifluoromethyl)pyr-ridin-3-yl)-1-isopropyl-1H-pyrazol-5-yl)-3-azabicyclo[3.1.0]hexane-3-car-boxylate], the Ki was determined as 0.0056 µM. As to `FC1(F)CC(n2nc(-c3cnc4[nH]cc(C(F)(F)F)c4c3)cc2C2CCOCC2)C1` [Compound 38, 5-(1-(3,3-difluroocyclobutyl)-5-(tetra-hydro-2H-pyran-4-yl)-1H-pyrazol-3-yl)-3-(trifluoromethyl)-1H-pyrrolo [2,3-b]pyridine], the Ki was found to be 0.058 µM. For the compound `CN1CCC(c2cc(-c3cnc(N)c(Cl)c3)nn2C2CC(F)(F)C2)CC1=O` (stereo not drawn) [Compound 43, 4-(3-(6-amino-5-chloropyridin-3-yl)-1-(3,3-difluorocyclobutyl)-1H-pyra-zol-5-yl)-1-methylpiperidin-2-one], the Ki stood at 0.06 µM.

On to `COCCN1C[C@@H]2[C@H](C1)[C@H]2c1cc(-c2cnc(N)c(C(F)(F)F)c2)nn1CC(F)(F)F` [Compound 126, 5-(5-((1R,5S,6r)-3-(2-methoxyethyl)-3-azabicyclo[3.1.0]hexan-6-yl)-1-(2,2,2-trifluoroethyl)-1H-pyrazol-3-yl)-3-(trifluoromethyl)pyridin-2-amine], for which the Ki is 0.0019 µM. For the compound `Nc1ncc(-c2cc([C@H]3[C@@H]4CN(C5COC5)C[C@@H]43)n(CC3CCC3)n2)cc1C1CC1` [Compound 162, 5-(1-(cyclobutylmethyl)-5-((1R,5S,6r)-3-(oxetan-3-yl)-3-azabicyclo[3.1.0]hexan-6-yl)-1H-pyrazol-3-yl)-3-cyclopropylpyridin-2-amine], the Ki is 0.066 µM.

As for `CC(C)n1nc(-c2cnc(N)c(OC(F)(F)F)c2)cc1[C@H]1[C@@H]2CN(C3COC3)C[C@@H]21` [Compound 165, 5-(1-isopropyl-5-((1R,5S,6r)-3-(oxe-tan-3-yl)-3-azabicyclo[3.1.0]hexan-6-yl)-1H-pyrazol-3-yl)-3-(trifluorometh-oxy)pyridin-2-amine], the inhibitory constant (Ki) was 0.0019 µM. For `CC(C)n1nc(-c2cnc3[nH]cc(C(F)(F)F)c3c2)cc1C1CCN(C2COC2)CC1` [Compound 70, 5-(1-isopropyl-5-(1-(oxetan-3-yl)pipe-ridin-4-yl)-1H-pyrazol-3-yl)-3-(tri-fluoromethyl)-1H-pyrrolo[2,3-b]pyri-dine], the Ki is 0.0023 µM. With `CC(C)n1nc(-c2cnc(N)c(C(F)(F)F)c2)cc1C1CN(C2COC2)C1` [Compound 60, 5-(1-isopropyl-5-(1-(oxetan-3-yl)azetidin-3-yl)-1H-pyrazol-3-yl)-3-(trifluoromethyl)pyridin-2-amine], the inhibition constant Ki is 0.027 µM. For `Nc1ncc(-c2cc(C3CCN(C4COC4)CC3)n(C3CCC(F)(F)C3)n2)cc1OCC1CC1` (stereo not drawn) [Compound 87, 3-(cyclopropylmethoxy)-5-(1-(3,3-di-fluorocyclopentyl)-5-(1-(oxetan-3-yl)piperidin-4-yl)-1H-pyrazol-3-yl)pyri-din-2-amine], the inhibition constant Ki stood at 0.64 µM.
